Source: patent US20050209278A1, “Piperidinyl- and piperazinyl-sulfonylmethyl hydroxamic acids and their use as protease inhibitors” (priority 2002, published 2005)
Like-named read-outs stand apart in the source and are kept apart here.

Tests used:
MMP-1 = biological target: T1, MMP-1 (Homo sapiens, UniProt P03956); experiment: In vitro MMP inhibition, IC50 determination (fluorogenic substrate I); type: biochemical; details: read-out: MMP-1 (IC-50)
T1 construct: made in house; host or cells: MMP-1-transfected HT-1080 cells (spent media)
T1 sequence (P03956 100-469): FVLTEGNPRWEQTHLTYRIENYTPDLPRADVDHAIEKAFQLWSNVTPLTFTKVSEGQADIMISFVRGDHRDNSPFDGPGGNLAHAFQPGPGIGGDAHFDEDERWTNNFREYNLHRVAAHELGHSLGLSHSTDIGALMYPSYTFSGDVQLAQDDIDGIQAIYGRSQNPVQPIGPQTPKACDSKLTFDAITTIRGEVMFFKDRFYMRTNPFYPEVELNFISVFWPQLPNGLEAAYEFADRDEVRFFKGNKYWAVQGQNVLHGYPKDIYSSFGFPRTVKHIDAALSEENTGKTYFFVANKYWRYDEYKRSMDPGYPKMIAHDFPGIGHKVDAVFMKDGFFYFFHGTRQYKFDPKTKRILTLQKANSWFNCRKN

MMP-14 = biological target: T2, MMP-14 (Homo sapiens, UniProt P50281); experiment: as above; type: biochemical; details: read-out: MMP-14 (IC-50)
T2 construct: The catalytic domain enzyme was expressed in E. coli inclusion bodies, solubilized in urea; made in house

Row | Structure (SMILES) | IC50 (MMP-1; value in parenthesis) | IC50 (MMP-14; value in parenthesis) | IC50 (MMP-1; value in parentheses) | IC50 (MMP-14; value in parentheses)
1 | CCOCCCc1ccc(N2CCN(S(=O)(=O)C3(C(=O)NO)CCN(CCOC)CC3)CC2)cc1 [Example 179] | > 10 µM | 3.62 µM | – | –
2 | COCCCc1ccc(N2CCN(S(=O)(=O)C3(C(=O)NO)CCN(CCOC)CC3)CC2)cc1 [Example 180] | > 10 µM | 5.56 µM | – | –
3 | COCCN1CCC(C(=O)NO)(S(=O)(=O)N2CCN(c3ccc(CCC4CCCC4)cc3)CC2)CC1 [Example 182] | > 10 µM | 7.85 µM | – | –
4 | COCCN1CCC(C(=O)NO)(S(=O)(=O)N2CCN(c3ccc(CC4CCC4)cc3)CC2)CC1 [Example 183] | > 10 µM | 2.04 µM | – | –
5 | CCOc1ccc(N2CCN(S(=O)(=O)C3(C(=O)NO)CCN(CCOC)CC3)CC2)cc1F [Example 184] | > 10 µM | 2.4 µM | – | –
6 | CCCOc1ccc(N2CCN(S(=O)(=O)C3(C(=O)NO)CCN(CCOC)CC3)CC2)cc1F [Example 185] | > 10 µM | > 10 µM | – | –

Continued, values first:

Row | IC50 (MMP-1; value in parenthesis) | IC50 (MMP-14; value in parenthesis) | IC50 (MMP-1; value in parentheses) | IC50 (MMP-14; value in parentheses) | Structure (SMILES)
7 | > 10 µM | > 10 µM | – | – | COCCN1CCC(C(=O)NO)(S(=O)(=O)N2CCN(c3ccc(CC4CCCCC4)cc3)CC2)CC1 [Example 181]
8 | > 10 µM | 7.48 µM | – | – | COCCN1CCC(C(=O)NO)(S(=O)(=O)N2CCN(c3ccc(C#N)cc3)CC2)CC1 [Example 186]
9 | > 10 µM | > 10 µM | – | – | CCc1cnc(N2CCN(S(=O)(=O)C3(C(=O)NO)CCN(CCOC)CC3)CC2)nc1 [Example 187]
10 | > 10 µM | > 10 µM | – | – | CCC(CC)Cc1ccc(N2CCN(S(=O)(=O)C3(C(=O)NO)CCN(CCOC)CC3)CC2)cc1 [Example 188]
11 | – | – | > 10 µM | 3.8 µM | CCCCOc1ccc(N2CCN(S(=O)(=O)C3(C(=O)NO)CCN(C(=O)CCC)CC3)CC2)cc1 [Example 290]
